Results: patent publication US7691382B2, “Antiviral polypeptides comprising tandem repeats of APOE 141-149 and variants thereof” (priority 2003, dated 2010)
pIC50: −log10 of the molar value. Peptide text beside a SMILES is read from it.

System: HSV1
Format: cell-based, Human herpes simplex virus type 1
Conditions: for efficacy for reducing HSV1 infectivity (in words): Examples 2 and 3
Method: African Green Monkey Kidney (Vero) cells were maintained in Eagle's minimum essential medium with Earle's salt (EMEM) and supplemented with 10% foetal calf serum (heat-inactivated), 4 mM L-glutamine, and 1% (v/v) nonessential amino acids, plus penicillin and streptomycin (100 IU/mg and […], respectively) (maintenance medium referred to as 10% EMEM). The cells were incubated at 37° C. in a humidified atmosphere of air with 5% CO2.
On harvesting, monolayers were washed in phosphate-buffered saline (PBS), and dislodged by incubating with trypsin in PBS for 30 min, before inactivating trypsin by addition of an equal volume of 10% EMEM and centrifuging at 500 g (5 min, 4° C.). Cell pellets were resuspended in 10% EMEM, prior to cell counting and seeding of 24-well plates. For antiviral assays, medium containing only 0.5% FCS was used (referred to as 0.5% EMEM).
Three separate passages of HSV1 virus were prepared by infecting Vero cells, and preparing semi-pure suspensions of virus from tissue culture supernatant and cell lysates, before freezing aliquots of virus at −85° C. Viral infectivity was assessed by carrying out plaque assays on serial dilutions of thawed aliquots (expressed in pfu/ml).
Peptides were obtained in lyophilised form from a commercial supplier (AltaBioscience, University of Birmingham or Advanced Biomedical), and were produced at 5 micromole scale. N-terminals were protected by addition of an acetyl group, and the C-terminals were protected by addition of an amide group.
Small quantities of peptide were weighed in sterile Eppendorf tubes, before addition of sufficient 0.5% EMEM to produce a 1.5 mM stock solution, which was frozen at −20° C. in aliquots.
Vero cells were seeded at 125,000 cells per well in 10% EMEM, and were incubated overnight resulting in confluent monolayers. […] Virus stocks (p3) were thawed, and diluted in 0.5% EMEM such that there were around 100 pfu in 100 μl. Each 24-well plate was inoculated separately. Firstly 100 μl of virus stock was added to the peptide or control medium arranged on a 96-well plate. This was incubated at 37° C. for ten minutes before inoculation. Medium was removed from four wells of a 24-well plate containing confluent Vero, and the 200 μl inoculum added to the appropriate well. Once all wells were treated, the 24-well plate was incubated for a further 60-80 minutes. Finally the peptide-containing inoculum was removed, and 1 ml of 1% EMEM containing 1% carboxymethylcellulose was added to each well. Plates were incubated for a further 22 hours or in some experiments 40 hours, before removal of overlay, and addition of 10% formaldehyde in PBS. After a further one hour incubation, fixative was removed, monolayers washed several times with tap water, and stained with carbol fuchsin solubilised in water. After 30 minutes stain was removed, and plates washed several times with tap water, before being air dried. Plaques were counted using an Olympus IX70 Inverting Microscope, and antiviral effect expressed as a percentage of the control value for each peptide concentration. The IC50 was calculated from plots of inhibitory effect against peptide concentration.

| Compound | pIC50 | efficacy for reducing HSV1 infectivity (in words) | Apparent IC50 (HSV1, Vero cells, Table 4 (Example 2)) |
| --- | --- | --- | --- |
| CC(=O)N[C@@H](CC(C)C)C(=O)N[C@@H](CCCCN)C(=O)N[C@@H](CCCCN)C(=O)N[C@@H](CC(C)C)C(=O)N[C@@H](CCCCN)C(=O)N[C@@H](CCCCN)C(=O)N[C@@H](CCCCN)C(=O)N[C@@H](CC(C)C)C(=O)N[C@@H](CC(C)C)C(=O)N[C@@H](CC(C)C)C(=O)N[C@@H](CCCCN)C(=O)N[C@@H](CCCCN)C(=O)N[C@@H](CC(C)C)C(=O)N[C@@H](CCCCN)C(=O)N[C@@H](CCCCN)C(=O)N[C@@H](CCCCN)C(=O)N[C@@H](CC(C)C)C(=O)N[C@@H](CC(C)C)C(N)=O [MU 39] (Ac-LKKLKKKLLLKKLKKKLL-NH2) | 4.52 |  |  |
| CC(=O)N[C@@H](CC(C)C)C(=O)N[C@@H](CCCNC(=N)N)C(=O)N[C@@H](CCCCN)C(=O)N[C@@H](CC(C)C)C(=O)N1CCC[C@H]1C(=O)N[C@@H](CCCCN)C(=O)N[C@@H](CCCNC(=N)N)C(=O)N[C@@H](CC(C)C)C(=O)N[C@@H](CC(C)C)C(=O)N[C@@H](CC(C)C)C(=O)N[C@@H](CCCNC(=N)N)C(=O)N[C@@H](CCCCN)C(=O)N[C@@H](CC(C)C)C(=O)N1CCC[C@H]1C(=O)N[C@@H](CCCCN)C(=O)N[C@@H](CCCNC(=N)N)C(=O)N[C@@H](CC(C)C)C(=O)N[C@@H](CC(C)C)C(N)=O [MU 44] (Ac-LRKLPKRLLLRKLPKRLL-NH2) | < 4.52 |  |  |
| CC(=O)N[C@@H](Cc1c[nH]c2ccccc12)C(=O)N[C@@H](CCCNC(=N)N)C(=O)N[C@@H](CCCCN)C(=O)N[C@@H](Cc1c[nH]c2ccccc12)C(=O)N[C@@H](CCCNC(=N)N)C(=O)N[C@@H](CCCCN)C(=O)N[C@@H](CCCNC(=N)N)C(=O)N[C@@H](Cc1c[nH]c2ccccc12)C(=O)N[C@@H](Cc1c[nH]c2ccccc12)C(=O)N[C@@H](CCCNC(=N)N)C(=O)N[C@@H](CCCCN)C(=O)N[C@@H](Cc1c[nH]c2ccccc12)C(=O)N[C@@H](CCCNC(=N)N)C(=O)N[C@@H](CCCCN)C(=O)N[C@@H](CCCNC(=N)N)C(=O)N[C@@H](Cc1c[nH]c2ccccc12)C(=O)N[C@@H](Cc1c[nH]c2ccccc12)C(N)=O [MU 58] (Ac-WRKWRKRWWRKWRKRWW-NH2) | 5.37 |  |  |
| CC(=O)N[C@@H](Cc1c[nH]c2ccccc12)C(=O)N[C@@H](CCCNC(=N)N)C(=O)N[C@@H](CCCCN)C(=O)N[C@@H](Cc1c[nH]c2ccccc12)C(=O)N[C@@H](CCCNC(=N)N)C(=O)N[C@@H](CCCCN)C(=O)N[C@@H](CCCNC(=N)N)C(=O)N[C@@H](Cc1c[nH]c2ccccc12)C(=O)N[C@@H](Cc1c[nH]c2ccccc12)C(=O)N[C@@H](Cc1ccccc1)C(=O)N[C@@H](CCCNC(=N)N)C(=O)N[C@@H](CCCCN)C(=O)N[C@@H](Cc1c[nH]c2ccccc12)C(=O)N[C@@H](CCCNC(=N)N)C(=O)N[C@@H](CCCCN)C(=O)N[C@@H](CCCNC(=N)N)C(=O)N[C@@H](Cc1c[nH]c2ccccc12)C(=O)N[C@@H](Cc1c[nH]c2ccccc12)C(N)=O [MU 60] (Ac-WRKWRKRWWFRKWRKRWW-NH2) | 5.40 |  |  |
| CC(=O)N[C@@H](Cc1c[nH]c2ccccc12)C(=O)N[C@@H](CCCNC(=N)N)C(=O)N[C@@H](CCCCN)C(=O)N[C@@H](Cc1c[nH]c2ccccc12)C(=O)N[C@@H](CCCNC(=N)N)C(=O)N[C@@H](CCCCN)C(=O)N[C@@H](CCCNC(=N)N)C(=O)N[C@@H](Cc1c[nH]c2ccccc12)C(=O)N[C@@H](Cc1ccccc1)C(=O)N[C@@H](Cc1ccccc1)C(=O)N[C@@H](CCCNC(=N)N)C(=O)N[C@@H](CCCCN)C(=O)N[C@@H](Cc1c[nH]c2ccccc12)C(=O)N[C@@H](CCCNC(=N)N)C(=O)N[C@@H](CCCCN)C(=O)N[C@@H](CCCNC(=N)N)C(=O)N[C@@H](Cc1ccccc1)C(=O)N[C@@H](Cc1ccccc1)C(N)=O [MU 61] (Ac-WRKWRKRWFFRKWRKRFF-NH2) | 5.32 |  |  |
| CC(=O)N[C@@H](Cc1c[nH]c2ccccc12)C(=O)N[C@@H](CCCNC(=N)N)C(=O)N[C@@H](CCCCN)C(=O)N[C@@H](CC(C)C)C(=O)N[C@@H](CCCNC(=N)N)C(=O)N[C@@H](CCCCN)C(=O)N[C@@H](CCCNC(=N)N)C(=O)N[C@@H](CC(C)C)C(=O)N[C@@H](CC(C)C)C(=O)N[C@@H](CC(C)C)C(=O)N[C@@H](CCCNC(=N)N)C(=O)N[C@@H](CCCCN)C(=O)N[C@@H](CC(C)C)C(=O)N[C@@H](CCCNC(=N)N)C(=O)N[C@@H](CCCCN)C(=O)N[C@@H](CCCNC(=N)N)C(=O)N[C@@H](CC(C)C)C(=O)N[C@@H](CC(C)C)C(N)=O [MU 115] (Ac-WRKLRKRLLLRKLRKRLL-NH2) | 4.76 |  |  |
| CC(=O)N[C@@H](Cc1c[nH]c2ccccc12)C(=O)N[C@@H](CCCNC(=N)N)C(=O)N[C@@H](CCCCN)C(=O)N[C@@H](Cc1c[nH]c2ccccc12)C(=O)N[C@@H](CCCNC(=N)N)C(=O)N[C@@H](CCCCN)C(=O)N[C@@H](Cc1ccccc1)C(=O)N[C@@H](Cc1ccccc1)C(=O)N[C@@H](Cc1ccccc1)C(=O)N[C@@H](CCCNC(=N)N)C(=O)N[C@@H](CCCCN)C(=O)N[C@@H](Cc1c[nH]c2ccccc12)C(=O)N[C@@H](CCCNC(=N)N)C(=O)N[C@@H](CCCCN)C(=O)N[C@@H](CCCNC(=N)N)C(=O)N[C@@H](Cc1c[nH]c2ccccc12)C(=O)N[C@@H](Cc1c[nH]c2ccccc12)C(N)=O [MU 116] (Ac-WRKWRKFFFRKWRKRWW-NH2) | 5.48 |  |  |
| CC(=O)N[C@@H](Cc1c[nH]c2ccccc12)C(=O)N[C@@H](CCCNC(=N)N)C(=O)N[C@@H](CCCCN)C(=O)N[C@@H](Cc1c[nH]c2ccccc12)C(=O)N[C@@H](CCCNC(=N)N)C(=O)N[C@@H](CCCCN)C(=O)N[C@@H](CCCNC(=N)N)C(=O)N[C@@H](Cc1c[nH]c2ccccc12)C(=O)N[C@@H](Cc1c[nH]c2ccccc12)C(=O)N[C@@H](Cc1ccccc1)C(=O)N[C@@H](CCCNC(=N)N)C(=O)N[C@@H](CCCCN)C(=O)N[C@@H](Cc1ccccc1)C(=O)N[C@@H](CCCNC(=N)N)C(=O)N[C@@H](CCCCN)C(=O)N[C@@H](CCCNC(=N)N)C(=O)N[C@@H](Cc1ccccc1)C(=O)N[C@@H](Cc1ccccc1)C(N)=O [MU 117] (Ac-WRKWRKRWWFRKFRKRFF-NH2) | 5.48 |  |  |
| ARKARKRAAARKARKRAA [GIN 39] |  | abolished antiviral activity |  |
| RLLLRKLRKRLL [GIN 3] |  | no, or poor, efficacy | No |
